Assay results reported in PubChem BioAssay AID248 (DTP/NCI, 2004).
Values joined by “and” are separate entries in the source; they are usually repeats but may differ in a detail not shown here. Identical values can stand only once. Inconclusive results and toxic doses are left out. Cut-off read from the data, not from the text of the source: active = T/C of 150% or more; inactive = T/C below 125%. Numbered stars: 1 amine (or outer) side, 2 acyl side, 3 side chain; on linkers, the order of the positions; unused ones are H or OH. Bridge positions count the residues as written; N and C are the ends. Square brackets hold non-standard residues; d marks the D form. Peptide text beside a SMILES is read from it. I, II: the chains in the order shown. Actinocin(9to1) = Cc1c2oc3c(C)ccc(C(=O)[*:1])c3nc-2c(C(=O)[*:2])c(N)c1=O; aThr = C[C@H](O)[C@H](N)C(=O)O; NMeV = CN[C@H](C(=O)O)C(C)C; Sar = CNCC(=O)O

Tested on: L1210 leukemia ip in BDF1 mice, survival T/C
Experiment: NCI In Vivo Anticancer Drug Screen. Data for tumor model L1210 Leukemia (intraperitoneal) in B6D2F1 (BDF1) mice
Conditions: higher = longer survival
Outline: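 Transplanted-tumor mice were given test agent; controls received vehicle only. Survival readings from the two groups were divided (treated over control).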

Measured: T/C

Cc1c2oc3c(C)ccc(C(=O)N[C@@H]4C(=O)N[C@H](C(C)C)C(=O)N5CCC[C@H]5C(=O)N(C)CC(=O)N(C)[C@@H](C(C)C)C(=O)O[C@H]4C)c3nc-2c(C(=O)N[C@@H]2C(=O)N[C@H](C(C)C)C(=O)N3CCC[C@H]3C(=O)N(C)CC(=O)N(C)[C@@H](C(C)C)C(=O)O[C@H]2C)c(N)c1=O (I: [aThr][dV]P[Sar][NMeV] / II: [aThr][dV]P[Sar][NMeV]; ester I:1-I:C, II:1-II:C; linker I:N-II:N via Actinocin(9to1))
inactive: endpoint: mean survival time, dose: 0.02 mg/kg/injection, schedule: Q04DX003 (ip), vehicle: water 102 % of control and 105 % of control | endpoint: mean survival time, dose: 0.03 mg/kg/injection, schedule: Q01DX009 (ip), vehicle: saline 111 % of control | endpoint: mean survival time, dose: 0.03 mg/kg/injection, schedule: Q04DX003 (ip), vehicle: water 105 % of control and 110 % of control | endpoint: mean survival time, dose: 0.05 mg/kg/injection, schedule: Q01DX009 (ip), vehicle: saline 111 % of control | endpoint: mean survival time, dose: 0.05 mg/kg/injection, schedule: Q04DX003 (ip), vehicle: other 103 % of control | endpoint: mean survival time, dose: 0.1 mg/kg/injection, schedule: Q01DX009 (ip), vehicle: saline + alcohol 103 % of control | endpoint: mean survival time, dose: 0.11 mg/kg/injection, schedule: Q01DX001 (ip), vehicle: saline 108 % of control | endpoint: mean survival time, dose: 0.12 mg/kg/injection, schedule: Q01DX Z (ip), vehicle: carboxymethylcellulose (CMC) 102 % of control | endpoint: mean survival time, dose: 0.13 mg/kg/injection, schedule: Q01DX009 (ip), vehicle: saline 103 % of control | endpoint: mean survival time, dose: 0.15 mg/kg/injection, schedule: Q02DX010 (ip), vehicle: carboxymethylcellulose (CMC) 104 % of control | endpoint: mean survival time, dose: 0.16 mg/kg/injection, schedule: Q01DX Z (ip), vehicle: carboxymethylcellulose (CMC) 94 % of control | endpoint: mean survival time, dose: 0.16 mg/kg/injection, schedule: Q## X032 (ip), vehicle: saline 107 % of control | endpoint: mean survival time, dose: 0.2 mg/kg/injection, schedule: Q01DX009 (ip), vehicle: saline 109 % of control | endpoint: mean survival time, dose: 0.22 mg/kg/injection, schedule: Q02DX010 (ip), vehicle: other 100 % of control | endpoint: mean survival time, dose: 0.23 mg/kg/injection, schedule: Q02DX010 (ip), vehicle: carboxymethylcellulose (CMC) 92 % of control | endpoint: mean survival time, dose: 0.24 mg/kg/injection, schedule: Q## X032 (ip), vehicle: saline 109 % of control | endpoint: mean survival time, dose: 0.3 mg/kg/injection, schedule: Q## X032 (ip), vehicle: saline 110 % of control | endpoint: mean survival time, dose: 1.0 mg/kg/injection, schedule: Q## X004 (ip), vehicle: saline 101 % of control | endpoint: mean survival time, dose: 0.7 micrograms/kg/injection, schedule: Q01DX009 (ip), vehicle: saline 100 % of control and 104 % of control | endpoint: mean survival time, dose: 0.8 micrograms/kg/injection, schedule: Q01DX Z (ip), vehicle: saline 104 % of control | endpoint: mean survival time, dose: 1.5 micrograms/kg/injection, schedule: Q01DX009 (ip), vehicle: saline 97 % of control and 104 % of control | endpoint: mean survival time, dose: 3.0 micrograms/kg/injection, schedule: Q01DX009 (ip), vehicle: saline 102 % of control and 104 % of control | endpoint: mean survival time, dose: 3.1 micrograms/kg/injection, schedule: Q01DX001 (ip), vehicle: saline 100 % of control | endpoint: mean survival time, dose: 3.2 micrograms/kg/injection, schedule: Q01DX Z (ip), vehicle: saline 107 % of control | endpoint: mean survival time, dose: 3.5 micrograms/kg/injection, schedule: Q01DX009 (ip), vehicle: saline 97 % of control | endpoint: mean survival time, dose: 3.5 micrograms/kg/injection, schedule: Q01DX Z (ip), vehicle: carboxymethylcellulose (CMC) 109 % of control | endpoint: mean survival time, dose: 4.0 micrograms/kg/injection, schedule: Q01DX009 (ip), vehicle: water 103 % of control and 106 % of control | endpoint: mean survival time, dose: 5.4 micrograms/kg/injection, schedule: Q01DX Z (ip), vehicle: carboxymethylcellulose (CMC) 111 % of control | endpoint: mean survival time, dose: 6.3 micrograms/kg/injection, schedule: Q01DX001 (ip), vehicle: saline 107 % of control | endpoint: mean survival time, dose: 12.0 micrograms/kg/injection, schedule: Q01DX006 (iv), vehicle: other 103 % of control | endpoint: mean survival time, dose: 12.0 micrograms/kg/injection, schedule: Q01DX Z (im), vehicle: other 103 % of control | endpoint: mean survival time, dose: 12.0 micrograms/kg/injection, schedule: Q01DX Z (sc), vehicle: other 105 % of control | endpoint: mean survival time, dose: 12.5 micrograms/kg/injection, schedule: Q01DX001 (ip), vehicle: saline 101 % of control | endpoint: mean survival time, dose: 12.5 micrograms/kg/injection, schedule: Q01DX009 (ip), vehicle: water 103 % of control | endpoint: mean survival time, dose: 17.0 micrograms/kg/injection, schedule: Q04DX002 (ip), vehicle: saline 97 % of control and 100 % of control | endpoint: mean survival time, dose: 20.0 micrograms/kg/injection, schedule: Q01DX015 (ip), vehicle: saline 108 % of control | endpoint: mean survival time, dose: 25.0 micrograms/kg/injection, schedule: Q01DX001 (ip), vehicle: saline 111 % of control | endpoint: mean survival time, dose: 25.0 micrograms/kg/injection, schedule: Q01DX009 (ip), vehicle: water 106 % of control | endpoint: mean survival time, dose: 25.0 micrograms/kg/injection, schedule: Q01DX Z (sc), vehicle: other 103 % of control | endpoint: mean survival time, dose: 35.0 micrograms/kg/injection, schedule: Q04DX002 (ip), vehicle: saline 103 % of control and 106 % of control | endpoint: mean survival time, dose: 40.0 micrograms/kg/injection, schedule: Q01DX Z (ip), vehicle: carboxymethylcellulose (CMC) 110 % of control | endpoint: mean survival time, dose: 50.0 micrograms/kg/injection, schedule: Q01DX001 (ip), vehicle: saline 109 % of control | endpoint: mean survival time, dose: 50.0 micrograms/kg/injection, schedule: Q01DX009 (ip), vehicle: water 105 % of control | endpoint: mean survival time, dose: 50.0 micrograms/kg/injection, schedule: Q01DX Z (oral), vehicle: other 111 % of control | endpoint: mean survival time, dose: 60.0 micrograms/kg/injection, schedule: Q01DX Z (ip), vehicle: carboxymethylcellulose (CMC) 100 % of control | endpoint: mean survival time, dose: 64.0 micrograms/kg/injection, schedule: Q01DX001 (ip), vehicle: clinical formulation 107 % of control | endpoint: mean survival time, dose: 64.0 micrograms/kg/injection, schedule: Q01DX001 (ip), vehicle: saline 104 % of control | endpoint: mean survival time, dose: 64.0 micrograms/kg/injection, schedule: Q01DX009 (ip), vehicle: clinical formulation 103 % of control | endpoint: mean survival time, dose: 70.0 micrograms/kg/injection, schedule: Q04DX002 (ip), vehicle: saline 109 % of control | endpoint: mean survival time, dose: 100.0 micrograms/kg/injection, schedule: Q01DX001 (ip), vehicle: saline 109 % of control | endpoint: mean survival time, dose: 100.0 micrograms/kg/injection, schedule: Q01DX009 (ip), vehicle: saline + alcohol 103 % of control | endpoint: mean survival time, dose: 100.0 micrograms/kg/injection, schedule: Q01DX Z (ip), vehicle: other 101 % of control | endpoint: mean survival time, dose: 100.0 micrograms/kg/injection, schedule: Q01DX Z (oral), vehicle: other 107 % of control | endpoint: mean survival time, dose: 128.0 micrograms/kg/injection, schedule: Q01DX001 (ip), vehicle: clinical formulation 109 % of control | endpoint: mean survival time, dose: 128.0 micrograms/kg/injection, schedule: Q01DX001 (ip), vehicle: saline 109 % of control | endpoint: mean survival time, dose: 140.0 micrograms/kg/injection, schedule: Q04DX002 (ip), vehicle: saline 93 % of control and 102 % of control | endpoint: mean survival time, dose: 280.0 micrograms/kg/injection, schedule: Q04DX002 (ip), vehicle: saline 106 % of control | endpoint: mean survival time, dose: 512.0 micrograms/kg/injection, schedule: Q04DX003 (ip), vehicle: water 100 % of control | endpoint: mean survival time, dose: 570.0 micrograms/kg/injection, schedule: Q04DX002 (ip), vehicle: saline 100 % of control | endpoint: median survival time, dose: 0.01 mg/kg/injection, schedule: Q01DX009 (ip), vehicle: water 107 % of control | endpoint: median survival time, dose: 0.02 mg/kg/injection, schedule: Q01DX009 (ip), vehicle: water 109 % of control (2×) and 110 % of control | endpoint: median survival time, dose: 0.03 mg/kg/injection, schedule: Q04DX003 (ip), vehicle: water 100 % of control | endpoint: median survival time, dose: 0.05 mg/kg/injection, schedule: Q01DX001 (ip), vehicle: saline 98 % of control | endpoint: median survival time, dose: 0.05 mg/kg/injection, schedule: Q01DX002 (ip), vehicle: saline 111 % of control | endpoint: median survival time, dose: 0.06 mg/kg/injection, schedule: Q01DX001 (ip), vehicle: water 100 % of control | endpoint: median survival time, dose: 0.06 mg/kg/injection, schedule: Q04DX003 (ip), vehicle: water 107 % of control | endpoint: median survival time, dose: 0.06 mg/kg/injection, schedule: Q08DX002 (ip), vehicle: water 94 % of control | endpoint: median survival time, dose: 0.08 mg/kg/injection, schedule: Q01DX009 (ip), vehicle: water 108 % of control | endpoint: median survival time, dose: 0.1 mg/kg/injection, schedule: Q01DX001 (ip), vehicle: saline 102 % of control | endpoint: median survival time, dose: 0.12 mg/kg/injection, schedule: Q01DX001 (ip), vehicle: water 111 % of control | endpoint: median survival time, dose: 0.12 mg/kg/injection, schedule: Q08DX002 (ip), vehicle: water 105 % of control | endpoint: median survival time, dose: 0.2 mg/kg/injection, schedule: Q01DX001 (ip), vehicle: saline 109 % of control | endpoint: median survival time, dose: 0.4 mg/kg/injection, schedule: Q01DX001 (ip), vehicle: saline 111 % of control | endpoint: median survival time, dose: 0.5 mg/kg/injection, schedule: Q04DX003 (ip), vehicle: water 96 % of control | endpoint: median survival time, dose: 4.0 micrograms/kg/injection, schedule: Q03HX016 (ip), vehicle: water 94 % of control | endpoint: median survival time, dose: 8.0 micrograms/kg/injection, schedule: Q03HX008 (ip), vehicle: water 100 % of control | endpoint: median survival time, dose: 8.0 micrograms/kg/injection, schedule: Q03HX016 (ip), vehicle: water 111 % of control | endpoint: median survival time, dose: 16.0 micrograms/kg/injection, schedule: Q03HX008 (ip), vehicle: water 111 % of control | endpoint: median survival time, dose: 16.0 micrograms/kg/injection, schedule: Q03HX016 (ip), vehicle: water 100 % of control | endpoint: median survival time, dose: 31.0 micrograms/kg/injection, schedule: Q03HX016 (ip), vehicle: water 100 % of control | endpoint: median survival time, dose: 200.0 micrograms/kg/injection, schedule: Q01DX009 (ip), vehicle: saline 93 % of control
